This passage reports inhibition results from patent US8106055B2, “Substituted amide compounds” (Gruenenthal GmbH, priority 2007, dated 2012).

The target of experiment [1] is T1, serotonin (5-HT) reuptake (Rattus norvegicus, UniProt P31652).
T1 construct: synaptosomes are freshly isolated from areas of the rat brain; from tissue; host or cells: rat brain synaptosomes (P2 fraction)
Put plainly: Inhibition of serotonin (5HT) reuptake in synaptosomes from rat brain. It is filed as biochemical. As to conditions: test concentration of 10 μM; read-out: 5-HT (inhibition of reuptake of serotonin, % inhibition). The essentials: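 Compounds screened at 10 μM and reported as percent inhibition of serotonin uptake. Uptake measured in a freshly prepared P2 synaptosomal fraction from rat brain.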

Another experiment concerns the target T2, human μ opiate receptor (Homo sapiens, UniProt P35372).
T2 construct: purchased PerkinElmer Life Sciences, Zaventem, Belgium RB-HOM; host or cells: CHO-K1 cells (membrane preparation)
Nature of the experiment: Affinity for the human μ opiate receptor ([3H]-naloxone displacement, CHO-K1 receptor membrane preparation, SPA). The class given is binding. Conditions: test concentration of 1 μM; read-out: μ (binding on the μ opioid receptor, % inhibition). A digest of the protocol: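 Displacement of 1 nmol/l [3H]-naloxone measured by SPA counting after 90 min at room temperature, using human μ receptor CHO-K1 membrane preparation in Tris-HCl buffer with 0.06% BSA. Test substances at 1 μmol/l give % inhibition; dilution series yield IC50, then Ki (Cheng-Prusoff); non-specific binding with 100 μmol/l naloxone.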

SMILES strings stand for the structures.

T2 sequence (P35372 whole entry): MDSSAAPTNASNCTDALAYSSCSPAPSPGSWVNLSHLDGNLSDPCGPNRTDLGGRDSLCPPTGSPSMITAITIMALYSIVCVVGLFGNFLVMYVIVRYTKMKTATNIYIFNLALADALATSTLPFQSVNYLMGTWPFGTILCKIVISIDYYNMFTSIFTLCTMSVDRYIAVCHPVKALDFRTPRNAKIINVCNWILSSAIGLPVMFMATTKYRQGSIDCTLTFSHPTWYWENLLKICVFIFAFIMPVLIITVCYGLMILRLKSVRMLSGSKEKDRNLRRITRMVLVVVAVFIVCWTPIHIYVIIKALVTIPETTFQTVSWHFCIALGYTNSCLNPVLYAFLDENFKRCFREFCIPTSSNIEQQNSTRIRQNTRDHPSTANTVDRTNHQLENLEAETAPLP
T1 sequence (P31652 whole entry): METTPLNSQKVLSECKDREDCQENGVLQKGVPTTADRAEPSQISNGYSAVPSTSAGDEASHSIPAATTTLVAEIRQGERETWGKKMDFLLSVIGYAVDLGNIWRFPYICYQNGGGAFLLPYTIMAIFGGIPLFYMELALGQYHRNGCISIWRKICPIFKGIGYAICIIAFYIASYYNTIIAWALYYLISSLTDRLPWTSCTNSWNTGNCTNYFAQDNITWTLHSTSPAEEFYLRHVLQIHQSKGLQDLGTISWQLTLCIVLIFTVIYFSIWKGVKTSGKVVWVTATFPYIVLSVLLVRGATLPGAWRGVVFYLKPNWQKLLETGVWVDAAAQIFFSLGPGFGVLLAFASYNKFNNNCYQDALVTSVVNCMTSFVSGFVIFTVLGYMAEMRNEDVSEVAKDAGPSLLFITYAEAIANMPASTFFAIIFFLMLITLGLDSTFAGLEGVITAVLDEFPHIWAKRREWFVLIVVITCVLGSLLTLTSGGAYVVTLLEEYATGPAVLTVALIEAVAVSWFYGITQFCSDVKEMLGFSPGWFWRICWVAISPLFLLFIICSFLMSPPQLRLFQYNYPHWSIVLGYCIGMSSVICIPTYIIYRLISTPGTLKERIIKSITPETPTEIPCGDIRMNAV

In general, inhibition refers to the change of the read-out against control, counted positive when it falls. As for `COc1cc(C)c(S(=O)(=O)N2CCC(OCC(=O)NCCC3CCC(C(c4cccs4)N(C)C)CC3)C2)c(C)c1C` (stereo not drawn) [Example 74, N-(2-(4-((dimethylamino)(thiophen-2-yl)methyl)cyclohexyl)ethyl)-2-(1-(4-methoxy-2,3,6-trimethylphenylsulfonyl)pyrrolidin-3-yloxy)acetamide], in experiment [1], the inhibition at 10 µM was 98%. The inhibition at 1 µM at human μ opiate receptor was determined as 90%.

With `COc1ccc(S(=O)(=O)N2CCCCC2COCC(=O)NCC2CCC(C(c3cccs3)N(C)C)CC2)cc1` (stereo not drawn) [Example 45, N-((4-((dimethylamino)(thiophen-2-yl)methyl)cyclohexyl)methyl)-2-((1-(4-methoxyphenylsulfonyl)piperidin-2-yl)methoxy)acetamide], the inhibition at 10 µM in experiment [1] was 91%. The inhibition at 1 µM on human μ opiate receptor was found to be 96%.

Consider `COc1cc(C)c(S(=O)(=O)N2CCC(OCC(=O)NCC3CCC(C(c4cccs4)N(C)C)CC3)C2)c(C)c1` (stereo not drawn) [Example 86, N-((4-((dimethylamino)(thiophen-2-yl)methyl)cyclohexyl)methyl)-2-(1-(4-methoxy-2,6-dimethylphenylsulfonyl)pyrrolidin-3-yloxy)acetamide], for which the inhibition at 10 µM in experiment [1] came out at 96%. The inhibition at 1 µM at human μ opiate receptor was found to be 95%.

On to `COc1ccc(S(=O)(=O)N2CCCCC2COCC(=O)NCC2CCC(C(c3ccccc3)N(C)C)CC2)cc1` (stereo not drawn) [Example 88, N-((4-((dimethylamino)(phenyl)methyl)cyclohexyl)methyl)-2-((1-(4-methoxyphenylsulfonyl)piperidin-2-yl)methoxy)acetamide], for which the inhibition at 10 µM in experiment [1] stood at 95%. For the same compound, the inhibition at 1 µM at human μ opiate receptor was 94%.

For the compound `COc1cc(C)c(S(=O)(=O)N2CCC(OCC(=O)NC3CCC(C(c4cccs4)N(C)C)CC3)CC2)c(C)c1C` (stereo not drawn) [Example 1, N-(4-((dimethylamino)(thiophen-2-yl)methyl)cyclohexyl)-2-(1-(4-methoxy-2,3,6-trimethylphenylsulfonyl)piperidin-4-yloxy)acetamide], in experiment [1], the inhibition at 10 µM stood at 94%. Further, the inhibition at 1 µM at human μ opiate receptor was 100%.

Consider `COc1cc(C)c(S(=O)(=O)N(C)CCOCC(=O)NCC2CCC(C(c3cccs3)N(C)C)CC2)c(C)c1` (stereo not drawn) [Example 69, N-((4-((dimethylamino)(thiophen-2-yl)methyl)cyclohexyl)methyl)-2-(2-(4-methoxy-N,2,6-trimethylphenylsulfonamido)ethoxy)acetamide], for which the inhibition at 10 µM in experiment [1] amounted to 86%. Moreover, on human μ opiate receptor, the inhibition at 1 µM is 96%.

Take `COc1cc(C)c(S(=O)(=O)N(C)CCOCC(=O)NCC2CCC(C(c3cccs3)N(C)C)CC2)c(C)c1C` (stereo not drawn) [Example 35, N-((4-((dimethylamino)(thiophen-2-yl)methyl)cyclohexyl)methyl)-2-(2-(4-methoxy-N,2,3,6-tetramethylphenylsulfonamido)ethoxy)acetamide]: in experiment [1], the inhibition at 10 µM was 84%. For the same compound, the inhibition at 1 µM at human μ opiate receptor is 96%.

Turning to `CN(C)C(c1cccs1)C1CCC(CCNC(=O)COCCN(C)S(=O)(=O)c2ccc(Cl)cc2)CC1` (stereo not drawn) [Example 37, 2-(2-(4-chloro-N-methylphenylsulfonamido)ethoxy)-N-(2-(4-((dimethylamino)(thiophen-2-yl)methyl)cyclohexyl)ethyl)acetamide], the inhibition at 10 µM in experiment [1] came out at 90%. The inhibition at 1 µM at human μ opiate receptor turned out to be 96%.

Regarding `CN(C)C(c1ccccc1)C1CCC(CNC(=O)COCCN(C)S(=O)(=O)c2cccc(C(F)(F)F)c2)CC1` (stereo not drawn) [Example 91, N-((4-((dimethylamino)(phenyl)methyl)cyclohexyl)methyl)-2-(2-(N-methyl-3-(trifluoromethyl)phenylsulfonamido)ethoxy)acetamide], in experiment [1], the inhibition at 10 µM came to 93%. Further, the inhibition at 1 µM at human μ opiate receptor is 91%.

As for `COc1ccc(S(=O)(=O)N2CCCCC2CCOCC(=O)NCCC2CCC(C(c3cccs3)N(C)C)CC2)cc1` (stereo not drawn) [Example 46, N-(2-(4-((dimethylamino)(thiophen-2-yl)methyl)cyclohexyl)ethyl)-2-(2-(1-(4-methoxyphenylsulfonyl)piperidin-2-yl)ethoxy)acetamide], the inhibition at 10 µM in experiment [1] was 96%. Besides, on human μ opiate receptor, the inhibition at 1 µM worked out at 96%.

Turning to `COc1cc(C)c(S(=O)(=O)N2CCN(CCOCC(=O)NCC3CCC(C(c4ccccc4)N(C)C)CC3)CC2)c(C)c1C` (stereo not drawn) [Example 61, N-((4-((dimethylamino)(phenyl)methyl)cyclohexyl)methyl)-2-(2-(4-(4-methoxy-2,3,6-trimethylphenylsulfonyl)piperazin-1-yl)ethoxy)acetamide], in experiment [1], the inhibition at 10 µM came out at 95%. Further, on human μ opiate receptor, the inhibition at 1 µM was found to be 95%.

Take `CCN(CCOCC(=O)NC1CCC(C(c2cccs2)N(C)C)CC1)S(=O)(=O)c1c(C)cc(OC)c(C)c1C` (stereo not drawn) [Example 59, N-(4-((dimethylamino)(thiophen-2-yl)methyl)cyclohexyl)-2-(2-(N-ethyl-4-methoxy-2,3,6-trimethylphenylsulfonamido)ethoxy)acetamide]: the inhibition at 10 µM in experiment [1] came out at 92%. In addition, on human μ opiate receptor, the inhibition at 1 µM stood at 95%.

For the compound `Cc1cc(C)c(S(=O)(=O)N2CCC(OCC(=O)NCCC3CCC(C(c4cccs4)N(C)C)CC3)C2)c(C)c1` (stereo not drawn) [Example 71, N-(2-(4-((dimethylamino)(thiophen-2-yl)methyl)cyclohexyl)ethyl)-2-(1-(mesitylsulfonyl)pyrrolidin-3-yloxy)acetamide], in experiment [1], the inhibition at 10 µM was 79%. The inhibition at 1 µM on human μ opiate receptor worked out at 94%.

In the case of `CN(C)C(c1cccc(F)c1)C1CCC(CNC(=O)COCCN(C)S(=O)(=O)c2ccc(Cl)cc2Cl)CC1` (stereo not drawn) [Example 70, 2-(2-(2,4-dichloro-N-methylphenylsulfonamido)ethoxy)-N-((4-((dimethylamino)(3-fluorophenyl)methyl)cyclohexyl)methyl)acetamide], the inhibition at 10 µM in experiment [1] was 86%. Besides, on human μ opiate receptor, the inhibition at 1 µM turned out to be 91%.

For the compound `CN(C)C(c1ccccc1)C1CCC(CNC(=O)COC2CCCCC2N(C)S(=O)(=O)c2ccc(Cl)c(Cl)c2)CC1` (stereo not drawn) [Example 78, 2-(2-(3,4-dichloro-N-methylphenylsulfonamido)cyclohexyloxy)-N-((4-((dimethylamino)(phenyl)methyl)cyclohexyl)methyl)acetamide], in experiment [1], the inhibition at 10 µM came out at 86%. For the same compound, the inhibition at 1 µM at human μ opiate receptor was determined as 95%.

With `CN(C)C(c1cccc(F)c1)C1CCC(CNC(=O)COCC2CCCCN2S(=O)(=O)c2ccc(Cl)c(Cl)c2)CC1` (stereo not drawn) [Example 87, 2-((1-(3,4-dichlorophenylsulfonyl)piperidin-2-yl)methoxy)-N-((4-((dimethylamino)(3-fluorophenyl)methyl)cyclohexyl)methyl)acetamide], the inhibition at 10 µM in experiment [1] worked out at 94%. For the same compound, the inhibition at 1 µM on human μ opiate receptor was 93%.

`COc1ccc(S(=O)(=O)N2Cc3ccccc3CC2COCC(=O)NCCC2CCC(C(c3cccs3)N(C)C)CC2)cc1` (stereo not drawn) [Example 48, N-(2-(4-((dimethylamino)(thiophen-2-yl)methyl)cyclohexyl)ethyl)-2-((2-(4-methoxyphenylsulfonyl)-1,2,3,4-tetrahydroisoquinolin-3-yl)methoxy)acetamide]: in experiment [1], the inhibition at 10 µM was 101%. In addition, at human μ opiate receptor, the inhibition at 1 µM was determined as 96%.

As for `COc1ccc(S(=O)(=O)N2CCCC2COCC(=O)NCCC2CCC(C(c3cccs3)N(C)C)CC2)cc1` (stereo not drawn) [Example 77, N-(2-(4-((dimethylamino)(thiophen-2-yl)methyl)cyclohexyl)ethyl)-2-((1-(4-methoxyphenylsulfonyl)pyrrolidin-2-yl)methoxy)acetamide], in experiment [1], the inhibition at 10 µM was found to be 98%. For the same compound, the inhibition at 1 µM at human μ opiate receptor was 96%.

Regarding `CN(C)C(c1ccccc1)C1CCC(NC(=O)COCCN(C)S(=O)(=O)c2c(Cl)cc(Cl)cc2Cl)CC1` (stereo not drawn) [Example 34, N-(4-((dimethylamino)(phenyl)methyl)cyclohexyl)-2-(2-(2,4,6-trichloro-N-methylphenylsulfonamido)ethoxy)acetamide], the inhibition at 10 µM in experiment [1] was 79%. Moreover, on human μ opiate receptor, the inhibition at 1 µM is 96%.

As to `CN(C)C(c1ccccc1)C1CCC(CNC(=O)COC2CCN(S(=O)(=O)c3ccc(Cl)cc3Cl)C2)CC1` (stereo not drawn) [Example 67, 2-(1-(2,4-dichlorophenylsulfonyl)pyrrolidin-3-yloxy)-N-((4-((dimethylamino)(phenyl)methyl)cyclohexyl)methyl)acetamide], the inhibition at 10 µM in experiment [1] is 87%. Further, the inhibition at 1 µM at human μ opiate receptor worked out at 96%.

In the case of `COc1ccc(S(=O)(=O)N2CCCCC2CCOCC(=O)NCC2CCC(C(c3ccccc3)N(C)C)CC2)cc1` (stereo not drawn) [Example 89, N-((4-((dimethylamino)(phenyl)methyl)cyclohexyl)methyl)-2-(2-(1-(4-methoxyphenylsulfonyl)piperidin-2-yl)ethoxy)acetamide], the inhibition at 10 µM in experiment [1] worked out at 92%. For the same compound, the inhibition at 1 µM at human μ opiate receptor is 93%.

Take `CN(C)C(c1cccs1)C1CCC(NC(=O)COCCN(C)S(=O)(=O)c2ccc(Cl)cc2)CC1` (stereo not drawn) [Example 83, 2-(2-(4-chloro-N-methylphenylsulfonamido)ethoxy)-N-(4-((dimethylamino) (thiophen-2-yl)methyl)cyclohexyl)acetamide]: the inhibition at 10 µM in experiment [1] came out at 89%. For the same compound, the inhibition at 1 µM at human μ opiate receptor turned out to be 94%.

In the case of `Cc1cc(C)c(S(=O)(=O)N(C)CCOCC(=O)NCC2CCC(C(c3cccs3)N(C)C)CC2)c(C)c1` (stereo not drawn) [Example 57, N-((4-((dimethylamino)(thiophen-2-yl)methyl)cyclohexyl)methyl)-2-(2-(N,2,4,6-tetramethylphenylsulfonamido)ethoxy)acetamide], the inhibition at 10 µM in experiment [1] turned out to be 101%. Further, the inhibition at 1 µM at human μ opiate receptor amounted to 95%.

As for `COc1cc(C)c(S(=O)(=O)N(C)CCOCC(=O)NCCC2CCC(C(c3cccs3)N(C)C)CC2)c(C)c1` (stereo not drawn) [Example 84, N-(2-(4-((dimethylamino)(thiophen-2-yl)methyl)cyclohexyl)ethyl)-2-(2-(4-methoxy-N,2,6-trimethylphenylsulfonamido)ethoxy)acetamide], in experiment [1], the inhibition at 10 µM turned out to be 92%. For the same compound, the inhibition at 1 µM at human μ opiate receptor worked out at 95%.
